Consider 1 compound from US10072005B2, “4-azaindole derivatives” (EISAI R&D MANAGEMENT CO., LTD., priority 2013, dated 2018).

One assay concerns the target mAChR M2 (Homo sapiens (Human), UniProt P08172). In words: In vitro cellular calcium flux assay, PAM, NAM and agonist modes, mAChR M2. It is filed as cell-based. The procedure: (§1) Baby hamster kidney cells stably expressing human or rat mAChR M1 to M5 were utilised for primary and selectivity profiling activities. mAChR M2 and M4 cell lines also stably expressed the chimeric Gαqi5 G-protein.
(§2) Human mAChR M1, M3, M5 and rat M1 cells were grown in low glucose Dulbecco's Modified Eagle's Medium (DMEM) medium plus heat inactivated 10% fetal bovine serum (HI FBS) and 500 μg/ml hygromycin B^1. Human mAChR M2 and M4 cells were maintained as above with^2 the addition of 500 μg/ml G418 to the media. Cells were maintained in culture at 37° C./5% CO2 and passaged twice weekly by treatment with 0.05% Trypsin/EDTA detachment solution, centrifugation (200 g, 5 min) and re-suspension in fresh media. Following cell expansion, cells were cryopreserved at −80° C. by treatment with 0.05% Trypsin/EDTA detachment solution, centrifugation (200 g, 5 min) and re-suspension of the pellet in freezing media (90% HI FBS/10% DMSO^3) at 15E6 cells/ml^4.
(§3) Prior to assaying, cells were prepared by thawing at 37° C. in a water bath, centrifugation (200 g, 5 min) and re-suspension of the pellet in fresh media. 15000 cells per well were seeded in black, clear bottomed 384-well Greiner Bio-One plates in plating medium (DMEM/10% HI FBS) and incubated overnight at 37 C/5% CO2.
(§4) On the day of the assay, media was removed from each well and replaced with 50 μl^5 assay buffer (HBSS with 20 mM HEPES and 2.5 mM Probenecid) containing the calcium indicator, Calcium 4 (Molecular Devices). Cells were then incubated at 37° C./5% CO2 for 30 min and at room temperature.
(§5) Compound preparation was carried out by generation of 11-point, 1 in 3 serial dilution concentration response curves in 100% DMSO. Compound was then diluted 1 in 65^6 with assay buffer (HBSS with 20 mM HEPES and 2.5 mM Probenecid) prior to the addition of 10 ul^7 to the cells using a Tetra fluorometric imaging plate reader (Molecular Devices)^8. Compound driven increases in intracellular calcium flux was measured as an increase in fluorescence (494Ex, 516Em)^9.
(§6) Positive allosteric modulator pEC50 values and antagonist pIC50 values for each compound were then determined. […] The points of modification and the alternate reagents, concentrations or equipment employed in these examples were: ^1200 μg/ml hygromycin B; ^2G418 not added; ^3CELLBANKER 1; ^410E6; ^5 40 μl; ^6 1 in 99; ^7 20 μl; ^8FDSS6000 (Hamamatsu Photonics); ^9(480Ex, 540Em); ^10Spotfire (TIBCO).
(§7) Certain compounds were tested in PAM, NAM and agonist modes against mAChR M2, M3, M4 and M5.
For orientation: A change in cytosolic calcium serves as a functional read-out for many receptors and channels.

Another assay concerns the target mAChR M3 (Homo sapiens (Human), UniProt P20309). Nature of the assay: In vitro cellular calcium flux assay, PAM, NAM and agonist modes, mAChR M3. It is filed as cell-based. The procedure: as §1, §2, §3, §4, §5, §6, §7
The target of the next assay is mAChR M4 (Homo sapiens (Human), UniProt P08173). In words: In vitro cellular calcium flux assay, PAM, NAM and agonist modes, mAChR M4. It is filed as cell-based. On the procedure: as §1, §2, §3, §4, §5, §6, §7
mAChR M4, sequence (P08173 whole entry): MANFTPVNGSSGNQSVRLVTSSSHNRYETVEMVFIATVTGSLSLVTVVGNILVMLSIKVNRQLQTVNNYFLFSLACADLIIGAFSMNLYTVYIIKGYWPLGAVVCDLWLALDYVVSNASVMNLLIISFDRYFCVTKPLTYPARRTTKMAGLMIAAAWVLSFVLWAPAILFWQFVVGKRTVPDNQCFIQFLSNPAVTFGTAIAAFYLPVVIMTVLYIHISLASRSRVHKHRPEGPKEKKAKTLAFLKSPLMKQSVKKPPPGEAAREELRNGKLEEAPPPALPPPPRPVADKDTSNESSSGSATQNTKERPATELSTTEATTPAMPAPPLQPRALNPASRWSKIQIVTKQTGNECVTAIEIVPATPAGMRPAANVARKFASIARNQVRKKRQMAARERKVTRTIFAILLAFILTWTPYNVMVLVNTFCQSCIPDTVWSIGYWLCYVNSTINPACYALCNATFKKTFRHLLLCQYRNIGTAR
Another assay has as its system Male Lister Hooded rats. In words: Novel Object Recognition test. It is filed as in vivo. The following applies: rat, 24 h delay. The procedure: The Novel Object Recognition test (NOR) is based on the greater spontaneous exploration of a novel object, compared with a familiar object, observed in rodents (Behav. Brain Res., 1988, 31(1), 47-59). […] Therefore, it is considered to be analogous to recognition memory tests used in human clinical testing. Male Lister Hooded rats were assessed for object recognition in a test apparatus comprising of a perspex test arena housed within a sound attenuating chamber. Video images of behaviour were captured by digital camera and recorded to a computer. Rats were habituated to the test arena on four occasions prior to testing. Habituation sessions replicated the test day sequence exactly with the exception of object presentation. On test days, each rat was placed into the test arena and 3 minutes later the rat was presented with two identical objects (plastic shapes). The time spent actively exploring the objects during a 3-minute test period (T1) was recorded. Following T1 rats were returned to home cages. After 24 hours each rat was again placed in the test arena and 3 minutes later was presented with one of the now familiar objects and a novel object, and again the time spent actively exploring the objects during a 3-minute test period (T2) was recorded. The presentation order and position of objects (left/right) was randomised within groups to prevent bias from order or place preference. Objects were cleaned with 70% ethanol solution between trials to remove any olfactory/taste cues. Compounds were administered by oral gavage at an appropriate pre-treatment time prior to T1 and T2 (n=12) at dosage ranges between 0.03 and 3 mg/kg. In some experiments the 5-HT6 receptor antagonist N-(3,5-dichloro-2-methoxyphenyl)-4-methoxy-3-(piperazin-1-yl)benzenesulfonamide (CAS 402713-80-8) (10 mg/kg p.o.; 4 h pre-treatment time) was included as a positive control. Vehicle controls (1% methylcellulose in water) were included for comparison in each study. Results are expressed as the d2 index (difference in time spent exploring novel and familiar objects/total object exploration in T2).

mAChR M3, sequence (P20309 whole entry, looked up): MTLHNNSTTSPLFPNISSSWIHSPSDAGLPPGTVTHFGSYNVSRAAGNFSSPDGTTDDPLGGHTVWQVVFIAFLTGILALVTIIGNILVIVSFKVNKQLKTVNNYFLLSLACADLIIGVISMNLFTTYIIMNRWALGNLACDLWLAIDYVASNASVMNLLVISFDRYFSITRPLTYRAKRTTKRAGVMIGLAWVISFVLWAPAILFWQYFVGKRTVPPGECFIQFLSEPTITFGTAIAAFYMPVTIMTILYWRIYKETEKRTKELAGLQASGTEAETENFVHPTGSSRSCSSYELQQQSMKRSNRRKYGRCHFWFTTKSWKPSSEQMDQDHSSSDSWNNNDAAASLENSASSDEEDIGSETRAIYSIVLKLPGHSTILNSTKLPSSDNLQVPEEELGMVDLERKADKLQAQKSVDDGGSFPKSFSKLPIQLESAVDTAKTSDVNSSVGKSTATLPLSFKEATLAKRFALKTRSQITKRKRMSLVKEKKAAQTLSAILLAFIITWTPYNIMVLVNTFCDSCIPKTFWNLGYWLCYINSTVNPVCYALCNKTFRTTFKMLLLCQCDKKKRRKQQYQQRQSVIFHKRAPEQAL
mAChR M2, sequence (P08172 whole entry): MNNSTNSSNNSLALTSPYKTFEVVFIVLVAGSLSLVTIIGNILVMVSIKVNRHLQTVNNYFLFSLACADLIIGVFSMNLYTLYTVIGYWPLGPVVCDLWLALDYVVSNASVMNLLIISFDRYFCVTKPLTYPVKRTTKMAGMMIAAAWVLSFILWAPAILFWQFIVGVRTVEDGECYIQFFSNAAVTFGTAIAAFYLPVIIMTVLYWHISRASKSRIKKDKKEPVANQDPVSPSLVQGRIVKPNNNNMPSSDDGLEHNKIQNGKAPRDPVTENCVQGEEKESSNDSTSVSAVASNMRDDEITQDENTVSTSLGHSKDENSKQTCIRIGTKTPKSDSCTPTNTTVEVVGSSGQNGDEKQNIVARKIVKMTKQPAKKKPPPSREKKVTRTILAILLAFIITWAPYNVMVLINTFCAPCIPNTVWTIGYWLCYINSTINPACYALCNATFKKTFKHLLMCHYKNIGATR

In general, EC50 refers to the concentration giving half of the maximal effect. Take `O=C(N[C@H]1CCCC[C@@H]1O)c1cn(Cc2ccc(F)cc2)c2cccnc12` [Example 5, 1-(4-Fluorobenzyl)-N-((1S,2S)-2-hydroxycyclohexyl)-1H-pyrrolo[3,2-b]pyridine-3-carboxamide]: the concentration giving a half-maximal response (EC50) on mAChR M2, at mAChR M3 and at mAChR M4 was greater than 10 µM in each case. Also, the “d2 index [mean ± SEM]” value is “[0.04 ± 0.06]” with Male Lister Hooded rats (0.03 mg/kg p.o.), “[0.20 ± 0.05]**” with Male Lister Hooded rats (0.1 mg/kg p.o.) and “[0.28 ± 0.05]***” in the assay on Male Lister Hooded rats (0.3 mg/kg p.o.).
